Laboratory results from US20080292619A1, “Pharmaceutical Composition Containing Meltrin Antagonist” (MOCHIDA PHARMACEUTICAL CO., LTD., priority 2004, published 2008).
In the oligonucleotide strings, read from the 5' end, every base follows the letter of its sugar. An asterisk marks phosphorothioate; unmarked linkages are phosphodiester. Other units and linkages are bracketed, terminal groups are in braces. A string of capitals states the bases alone. d = 2'-deoxy (DNA)

Tested on: human meltrin α RNA
Experiment: Suppression of human meltrin α expression by antisense compound in RD cell (real time PCR)
Format: cell-based
Conditions: RD cell
Method: First, RD cell (ATCC) was suspended in DMEM containing 10% fetal bovine serum (FBS, SIGMA), and the suspension was inoculated in 6 well culture plate at 2.5×10^5 cells/well/2 mL. After incubating overnight at 37° C. in the presence of 5% CO2, the cells were washed twice with serum-free DMEM, and Opti-MEM medium (GIBCO) was added at 800 μL/well.
Gene transfection reagent Lipofectin (Invitrogen) was diluted with Opti-MEM to 20 μg/mL, and the dilution was allowed to stand at room temperature for 30 minutes. Next, the antisense oligodeoxynucleotide synthesized as described above was heated at 90° C. for 3 minutes, and after quenching on ice, diluted with Opti-MEM to a concentration 10 times higher than the final concentration. Equal amounts of the Lipofectin in Opti-MEM and the antisense oligo DNA in Opti-MEM were mixed, and the mixture was incubated at room temperature for 15 minutes and added to 6 well plate at 200 μL/well.
The culture was incubated at 37° C. for 4 hours in the presence of 5% CO2, and the culture supernatant containing the Lipofectin was removed. The cells were washed twice with serum-free DMEM, and after adding 1 mL/well of Opti-MEM and incubating for 18 hours at 37° C. in the presence of 5% CO2, the cells were subjected to the measurement of the level of expression of meltrin α RNA.
After the washing, RNA was isolated from the cell by using RNA isolation kit (RNeasy Micro Kit, QIAGEN) according to the protocol of the kit, and RNA concentration was determined by measuring absorbance at a wavelength of 260 nm with a spectrophotometer (Nano prop, LMS Co., Ltd.) (1OD=40 μg/mL). After the quantitation, the RNA was prepared to a concentration of 0.1 μg/μL by using DEPC-treated water.
0.35 μg of the isolated RNA, and 3.5 μL of 10× TaqMan buffer, 7.7 μL of 25 mM MgCl2, 7.0 μL of 2.5 mM each dNTP Mix, 1.75 μL of 50 μM Random Hexamers, 0.7 μL of 20 U/μL RNase inhibitor, and 0.9 μL of 50 U/μL MultiScribe Reverse Transcriptase (all purchased from Applied Biosystems) were mixed, and water was added to make up the total volume to 35 μL. This solution was maintained at 25° C. for 10 minutes, at 48° C. for 30 minutes, and at 95° C. for 5 minutes, and reverse transcription was conducted to synthesize cDNA.
A solution in total volume of 20 μL containing 10 μL of TaqMan Universal PCR Master Mix, 0.4 μL of 10 μM TaqMan MGB Probe (sequence 5′FAM-caccgaaggacaatccca-MGB-3′: Applied Biosystems), 0.1 μL of 50 μM Forward primer (sequence ggaagccgccagattcct) for detecting meltrin α, 0.1 μL of 50 μM Reverse primer (sequence […]) for detecting meltrin α (all purchased from Sigma-Genosys), 5 μL of the cDNA solution of (3), and 4.4 μL of water was prepared, and after maintaining the solution at 50° C. for 2 minutes and at 95° C. for 10 minutes, PCR was conducted by repeating 40 cycles of 95° C. for 15 seconds and 60° C. for 1 minute in ABI Prism 7000.
The amount of the human meltrin α RNA was measured by conducting real time PCR by using the plasmid containing the cDNA coding for the human meltrin α for the template to generate the standard curve, and calculating RNA copy number of the meltrin α in each sample. The level of expression of GAPDH was also determined by using a primer and probe set for real time PCR of human GAPDH (Pre-Developed TaqMan Assay Reagents Human GAPDH (20×) (Cat# 4310884E, Applied Biosystems).
The results of the real time PCR of the meltrin α was corrected by the level of expression of the GAPDH to calculate the suppression rate. […]

## H091: ttggctgggcagtgagggct (dT*dT*dG*dG*dC*dT*dG*dG*dG*dC*dA*dG*dT*dG*dA*dG*dG*dG*dC*dT; antisense)
Corrected by GAPDH
  suppression rate of expression, 200 nM: ++ (“++” when the suppression rate was at least 50%)

## H144 + 11: ggatctgcaggcagaggctt (GGATCTGCAGGCAGAGGCTT; antisense; DNA, all phosphorothioate, methylation of C not given here)
Corrected by GAPDH
  suppression rate of expression, 50 nM: ++ (“++” when the suppression rate was at least 50%)

## H017: gggcgggggacacgggcagc (GGGCGGGGGACACGGGCAGC; antisense; DNA, all phosphorothioate, methylation of C not given here)
Corrected by GAPDH
  suppression rate of expression, 200 nM: ++ (“++” when the suppression rate was at least 50%)

## H132: cttcctcatcaggccttttc (CTTCCTCATCAGGCCTTTTC; antisense; DNA, all phosphorothioate, methylation of C not given here)
Corrected by GAPDH
  suppression rate of expression, 200 nM: ++ (“++” when the suppression rate was at least 50%)

## H092: gcccatcgtgcaggtacacg (dG*dC*dC*dC*dA*dT*dC*dG*dT*dG*dC*dA*dG*dG*dT*dA*dC*dA*dC*dG; antisense)
Corrected by GAPDH
  suppression rate of expression, 200 nM: ++ (“++” when the suppression rate was at least 50%)

## H114: gtgaaccccaaagacactaa (dG*dT*dG*dA*dA*dC*dC*dC*dC*dA*dA*dA*dG*dA*dC*dA*dC*dT*dA*dA; antisense)
Corrected by GAPDH
  suppression rate of expression, 200 nM: + (“+” when the suppression rate was at least 30%)

## H144 + 10: gatctgcaggcagaggcttc (GATCTGCAGGCAGAGGCTTC; antisense; DNA, all phosphorothioate, methylation of C not given here)
Corrected by GAPDH
  suppression rate of expression, 50 nM: +++ (“+++” when the suppression rate was at least 70%)

## H173: agctgcatctggtaccataa (dA*dG*dC*dT*dG*dC*dA*dT*dC*dT*dG*dG*dT*dA*dC*dC*dA*dT*dA*dA; antisense)
Corrected by GAPDH
  suppression rate of expression, 50 nM: ++ (“++” when the suppression rate was at least 50%)
  suppression rate of expression, 200 nM: +++ (“+++” when the suppression rate was at least 70%)

## H089: ggaggtcacaggagttgctg (dG*dG*dA*dG*dG*dT*dC*dA*dC*dA*dG*dG*dA*dG*dT*dT*dG*dC*dT*dG; antisense)
Corrected by GAPDH
  suppression rate of expression, 200 nM: + (“+” when the suppression rate was at least 30%)

## H096: tccccagagtgtgacacact (dT*dC*dC*dC*dC*dA*dG*dA*dG*dT*dG*dT*dG*dA*dC*dA*dC*dA*dC*dT; antisense)
Corrected by GAPDH
  suppression rate of expression, 200 nM: + (“+” when the suppression rate was at least 30%)

## H072: gcagcctcctttctcaaccg (dG*dC*dA*dG*dC*dC*dT*dC*dC*dT*dT*dT*dC*dT*dC*dA*dA*dC*dC*dG; antisense)
Corrected by GAPDH
  suppression rate of expression, 200 nM: + (“+” when the suppression rate was at least 30%)

## H171: gggactgctttccaataagg (dG*dG*dG*dA*dC*dT*dG*dC*dT*dT*dT*dC*dC*dA*dA*dT*dA*dA*dG*dG; antisense)
Corrected by GAPDH
  suppression rate of expression, 200 nM: ++ (“++” when the suppression rate was at least 50%)

## H133 + 1: cggtgggtaggaatctggcg (CGGTGGGTAGGAATCTGGCG; antisense; DNA, all phosphorothioate, methylation of C not given here)
Corrected by GAPDH
  suppression rate of expression, 50 nM: ++ (“++” when the suppression rate was at least 50%)

## H165: aaaactcagtgatggtaaaa (dA*dA*dA*dA*dC*dT*dC*dA*dG*dT*dG*dA*dT*dG*dG*dT*dA*dA*dA*dA; antisense)
Corrected by GAPDH
  suppression rate of expression, 200 nM: + (“+” when the suppression rate was at least 30%)

## H132 + 15: gtaggaatctggcggcttcc (GTAGGAATCTGGCGGCTTCC; antisense; DNA, all phosphorothioate, methylation of C not given here)
Corrected by GAPDH
  suppression rate of expression, 50 nM: + (“+” when the suppression rate was at least 30%)

## H142: gcctgcctaagtgcaggctt (GCCTGCCTAAGTGCAGGCTT; antisense; DNA, all phosphorothioate, methylation of C not given here)
Corrected by GAPDH
  suppression rate of expression, 50 nM: ++ (“++” when the suppression rate was at least 50%)
  suppression rate of expression, 200 nM: ++ (“++” when the suppression rate was at least 50%)

## H137: gctgagggacattcaggccg (GCTGAGGGACATTCAGGCCG; antisense; DNA, all phosphorothioate, methylation of C not given here)
Corrected by GAPDH
  suppression rate of expression, 50 nM: ++ (“++” when the suppression rate was at least 50%)
  suppression rate of expression, 200 nM: ++ (“++” when the suppression rate was at least 50%)

## H144 + 19: tggccagaggatctgcaggc (TGGCCAGAGGATCTGCAGGC; antisense; DNA, all phosphorothioate, methylation of C not given here)
Corrected by GAPDH
  suppression rate of expression, 50 nM: +++ (“+++” when the suppression rate was at least 70%)

## H076-OMe1: chimeric antisense oligonucleotide GCTGGtctccaagtcCTTCC, uppercase 2′-methoxy nucleotides, lowercase phosphorothioate nucleotides (GCTGGTCTCCAAGTCCTTCC; 2'-O-methyl at 1, 2, 3, 4, 5, 16, 17, 18, 19, 20, other sugars, backbone and T or U not given here; lowercase gap nucleotides phosphorothioate)
Chimeric 2′-methoxy antisense oligonucleotides
  suppression rate of expression, 200 nM: ++ (“++” when the suppression rate was at least 50%)

## H139 + 12: ggtgcacgtggggcccggtg (GGTGCACGTGGGGCCCGGTG; antisense; DNA, all phosphorothioate, methylation of C not given here)
Corrected by GAPDH
  suppression rate of expression, 50 nM: + (“+” when the suppression rate was at least 30%)

## H188: ccccttccaaacatgctcac (dC*dC*dC*dC*dT*dT*dC*dC*dA*dA*dA*dC*dA*dT*dG*dC*dT*dC*dA*dC; antisense)
Corrected by GAPDH
  suppression rate of expression, 200 nM: + (“+” when the suppression rate was at least 30%)

## H219: ttcaaggggatgctgcccaa (dT*dT*dC*dA*dA*dG*dG*dG*dG*dA*dT*dG*dC*dT*dG*dC*dC*dC*dA*dA; antisense)
Corrected by GAPDH
  suppression rate of expression, 50 nM: + (“+” when the suppression rate was at least 30%)
  suppression rate of expression, 200 nM: +++ (“+++” when the suppression rate was at least 70%)

## H164: atgcctactacagcgcactg (dA*dT*dG*dC*dC*dT*dA*dC*dT*dA*dC*dA*dG*dC*dG*dC*dA*dC*dT*dG; antisense)
Corrected by GAPDH
  suppression rate of expression, 200 nM: ++ (“++” when the suppression rate was at least 50%)

## H160: gcaccatagcacagcacagc (dG*dC*dA*dC*dC*dA*dT*dA*dG*dC*dA*dC*dA*dG*dC*dA*dC*dA*dG*dC; antisense)
Corrected by GAPDH
  suppression rate of expression, 200 nM: ++ (“++” when the suppression rate was at least 50%)

## H118: ggaggtgcccagtgggcctc (GGAGGTGCCCAGTGGGCCTC; antisense; DNA, all phosphorothioate, methylation of C not given here)
Corrected by GAPDH
  suppression rate of expression, 50 nM: + (“+” when the suppression rate was at least 30%)
  suppression rate of expression, 200 nM: ++ (“++” when the suppression rate was at least 50%)

## H076: tccaggctggtctccaagtc (dT*dC*dC*dA*dG*dG*dC*dT*dG*dG*dT*dC*dT*dC*dC*dA*dA*dG*dT*dC)
Corrected by GAPDH
  suppression rate of expression, 200 nM: ++ (“++” when the suppression rate was at least 50%)
